Laboratory results taken from patent US20240066008A1, “Device and Antitumor Drug for the Treatment of Neoplastic Cells” (Telea Electronic Engineering SRL, priority 2021, published 2024).

Tested on: A172 glioblastoma cells
Experiment: Cell viability, Trypan blue exclusion assay
Type: cell-based
Settings: Homo sapiens, A 172, TMZ 10 μM for 144 hours in combination with 24-hour QMR treatment (4 MHz current waves), vs TMZ alone, FIG. 12b, read-out: cell viability reduced more than the reduction obtained in cells treated with TMZ drug alone
Description: Glioblastoma cell lines A172, T98G and U87MG were used. A172 and T98G cells (Sigma-Aldrich, St. Louis, MO, USA) were cultured in Dulbecco's Modified Eagle's Medium/Nutrient Mixture F-12 (DMEM/F12 GlutaMAX, Gibco, Thermo Fisher Scientific, Waltham, MA, USA) added with 10% foetal bovine serum (FBS) (Qualified Australian, Gibco, Thermo Fisher Scientific) and 1% penicillin/streptomycin (Sigma-Aldrich).
The cell lines were stimulated with QMR using a prototype QMR device from the company Telea (Telea Electronic Engineering, Sandrigo, VI, Italy). The device, suitably adapted for the present in vitro experiments, generated high-frequency sinusoidal alternating electric current waves of 4 MHz with harmonics from 4 to 64 MHz and had the following data: power supply 100÷230 V˜50/60 Hz; maximum output power, 5 W/400Ω.
QMR was applied to the cells using a pair of electrodes that were placed inside a 100 mm Petri dish, at the edge, and connected to the generator device. […] This value was measured by means of three independent measurements with a data-logger probe (iLog, Escort Scunthorpe, UK) placed in the culture medium. […]
For these analyses, the cells were treated for 144 hours with 10-25 μM of TMZ administered at the same time as or after QMR stimulation. […] Cell viability, apoptosis and the cell cycle were assessed after 144 hours. […]

Cn1nnc2c(C(N)=O)ncn2c1=O [TMZ, temozolomide]
cytotoxicity at 10 µM: ~12%
